Laboratory results published in patent US20220145343A1 (priority 2019, published 2022).
“And” between values parts separate entries of the source, which are not always exact repeats. Identical values can stand only once. Like-named read-outs stand apart in the source and are kept apart here. Marks after values point to notes of the source that are not given here.

Key:
[1] = target: NmSiaDW sialyltransferase activity (Neisseria meningitidis, UniProt O33390); conditions: apparent; varying acceptor, 10 mM CMP-Neu5Ac, pH 8.0, 30° C.
[2] = system: α2-6-sialyltransferase activity of NmSiaDW; type: biochemical, Neisseria meningitidis
NmCSS = NmCSS (Neisseria meningitidis, UniProt P0A0Z8); type: biochemical; conditions: step 1 in the presence of NmCSS (0.75 mg/mL) for 10 h
[3] = system: α2-6-sialyltransferase activity of NmSiaDW; type: biochemical, Neisseria meningitidis; remark: listed apart in the source
NmCSS and PmAldolase = type: biochemical, Neisseria meningitidis; Pasteurella multocida
[4] = target: NmSiaDW α1-4-galactosyltransferase activity (Neisseria meningitidis, UniProt O33390); type: biochemical; conditions: apparent; varying UDP-Gal, fixed acceptor 2 mM (row names the acceptor)
[5] = target: NmSiaDW galactosyltransferase activity (Neisseria meningitidis, UniProt O33390); conditions: for increase of overall catalytic efficiency (kcat/KM) relative to monosaccharide S1: monosaccharide to nonasaccharide
NmSiaDW [6] = test: Thermostability of NmSiaDW (pre-heated 30 min, then activity assay at 30° C.); type: biochemical, Neisseria meningitidis
Protocol: Enzyme was pre-heated at a given temperature for 30 min, then put on ice for 10 min. Reactions were performed at 30° C. and activity assays were then carried out as described above for the temperature profile assays.

NmSiaDW [7] = test: Temperature profile of NmSiaDW activities; type: biochemical, Neisseria meningitidis
Protocol: Assays were carried out in duplicate at different temperatures for 20 min in a total volume of 10 μL in a buffer (MES, 100 mM, pH 6.5 for GalT and Tris-HCl, 100 mM, pH 8.0 for SiaT assays) containing a donor substrate (1.2 mM) (UDP-Gal for GalT and CMP-Neu5Ac for SiaT assays), an acceptor substrate (1 mM) (S1 for GalT and G2 for SiaT assays), MgCl2 (10 mM), and NmSiaDW (19.8 μg for GalT and 0.17 μg for SiaT assays). Reactions were quenched by adding 10 μL of pre-chilled ethanol to the reaction mixture followed by incubation at −20° C. for 30 min. Products were assayed as described above for pH profile studies.

[8] = apparent, varying acceptor, 2 mM UDP-Gal, pH 6.5, 30° C.
[9] = α1-4-galactosyltransferase activity

CC(=O)N[C@H]1[C@H]([C@H](O)[C@H](O)CO)O[C@@](OC[C@H]2O[C@H](O[C@H]3C[C@](OCCCNC(=O)OCc4ccccc4)(C(=O)O)O[C@@H]([C@H](O)[C@H](O)CO)[C@@H]3NC(C)=O)[C@H](O)[C@@H](O)[C@H]2O)(C(=O)O)C[C@@H]1O[C@H]1O[C@H](CO)[C@H](O)[C@H](O)[C@H]1O [G4, Galα1-4Neu5Acα2-6Galα1-4Neu5AcαProNHCbz]
kcat [1]: 23.1 ± 1.1 s⁻¹

CC(=O)N[C@H]1[C@H]([C@H](O)[C@H](O)CO)O[C@@](OC[C@H]2O[C@H](O[C@H]3C[C@](OC[C@H]4O[C@H](O[C@H]5C[C@](OCCCNC(=O)OCc6ccccc6)(C(=O)O)O[C@@H]([C@H](O)[C@H](O)CO)[C@@H]5NC(C)=O)[C@H](O)[C@@H](O)[C@H]4O)(C(=O)O)O[C@@H]([C@H](O)[C@H](O)CO)[C@@H]3NC(C)=O)[C@H](O)[C@@H](O)[C@H]2O)(C(=O)O)C[C@@H]1O[C@H]1O[C@H](CO)[C@H](O)[C@H](O)[C@H]1O [G6, Galα1(-4Neu5Acα2-6Galα1)2-4Neu5AcαProNHCbz]
Km [1]: 230 ± 40 µM
kcat [1]: 11.9 ± 0.5 s⁻¹

CC(=O)N[C@H]1[C@H]([C@H](O)[C@H](O)CO)O[C@@](OC[C@H]2O[C@H](O[C@H]3C[C@](OC[C@H]4O[C@H](O[C@H]5C[C@](OC[C@H]6O[C@H](O[C@H]7C[C@](OCCCNC(=O)OCc8ccccc8)(C(=O)O)O[C@@H]([C@H](O)[C@H](O)CO)[C@@H]7NC(C)=O)[C@H](O)[C@@H](O)[C@H]6O)(C(=O)O)O[C@@H]([C@H](O)[C@H](O)CO)[C@@H]5NC(C)=O)[C@H](O)[C@@H](O)[C@H]4O)(C(=O)O)O[C@@H]([C@H](O)[C@H](O)CO)[C@@H]3NC(C)=O)[C@H](O)[C@@H](O)[C@H]2O)(C(=O)O)C[C@@H]1O[C@H]1O[C@H](CO)[C@H](O)[C@H](O)[C@H]1O [G8, Galα1(-4Neu5Acα2-6Galα1)3-4Neu5AcαProNHCbz]
Km [1]: 250 ± 40 µM
kcat [1]: 10.3 ± 0.5 s⁻¹

CO[C@H]1O[C@H](CO)[C@H](O)[C@H](O)[C@H]1O [GalαOMe]
Product [2]: Not Detected

OC[C@H]1O[C@@H](O[C@H]2[C@H](O)[C@@H](O)C(O)O[C@@H]2CO)[C@H](O)[C@@H](O)[C@H]1O (some centres unmarked) [Galβ1-4Glc]
Product [2]: √

O=C(O)C(=O)C[C@H](O)[C@@H](O)[C@@H](O)[C@H](O)[C@H](O)CO [Kdn, 2-keto-3-deoxynonulosonic acid]
Percentage conversion (%) CMP-Sialic acid (NmCSS): Quantitative ^a

[N-]=[N+]=N[C@H](C=O)[C@@H](O)[C@H](O)[C@H](O)CO [Man2N3, 2-azido-2-deoxy-mannose]
Percentage conversion (%) Transferase Reaction [3]: 0%
Percentage conversion (%) CMP-Sialic acid (NmCSS and PmAldolase): 77 ± 1 ^b %

CC(=O)N[C@@H]1C(O)O[C@H](CO)[C@@H](N=[N+]=[N-])[C@@H]1O (some centres unmarked) [ManNAc4N3, 4-azido-4-deoxy-N-acetylmannosamine]
Percentage conversion (%) CMP-Sialic acid (NmCSS and PmAldolase): 90 ± 3 ^b %

CC(=O)N[C@@H]1C(O)O[C@H](CN=[N+]=[N-])[C@@H](O)[C@@H]1O (some centres unmarked) [ManNAc6N3, 6-azido-6-deoxy-N-acetylmannosamine]
Percentage conversion (%) CMP-Sialic acid (NmCSS and PmAldolase): 91 ± 10 ^b %

CC(=O)NC[C@@H](O)[C@@H](O)[C@H](O)[C@@H](C=O)NC(C)=O [ManNAc6NAc, 6-N-acetyl-6-deoxy-N-acetylmannosamine]
Percentage conversion (%) Transferase Reaction [3]: 0%
Percentage conversion (%) CMP-Sialic acid (NmCSS and PmAldolase): 87 ± 2 ^b %

[N-]=[N+]=NCC(=O)N[C@@H]1C(O)O[C@H](CO)[C@@H](O)[C@@H]1O (some centres unmarked) [ManNAz, N-azidoacetylmannosamine]
Percentage conversion (%) CMP-Sialic acid (NmCSS and PmAldolase): Quantitative ^b

CC(=O)N[C@H]1[C@H]([C@H](O)[C@H](O)CO)OC(O)(C(=O)O)C[C@@H]1OC(C)=O (some centres unmarked) [Neu4,5Ac, 4-O-acetyl-N-acetylneuraminic acid]
Percentage conversion (%) Transferase Reaction [3]: 0%
Percentage conversion (%) CMP-Sialic acid (NmCSS): 53 ± 1 ^a %

CC(=O)N[C@H]1[C@H]([C@H](O)[C@H](O)COC(C)=O)OC(O)(C(=O)O)C[C@@H]1O (some centres unmarked) [Neu5,9Ac, 9-O-acetyl-N-acetylneuraminic acid]
Percentage conversion (%) Transferase Reaction [3]: 0%
Percentage conversion (%) CMP-Sialic acid (NmCSS): 61 ± 2 ^a %

CO[C@H](CO)[C@@H](O)[C@@H]1OC(O)(C(=O)O)C[C@H](O)[C@H]1NC(C)=O (some centres unmarked) [Neu5Ac8OMe, 8-O-methyl-N-acetylneuraminic acid]
Percentage conversion (%) CMP-Sialic acid (NmCSS): 79 ± 1 ^a %

CC(=O)N[C@H]1[C@H]([C@H](O)[C@H](O)CO)OC(O)(C(=O)O)C[C@@H]1O (some centres unmarked) [Neu5Ac, N-acetylneuraminic acid]
Percentage conversion (%) CMP-Sialic acid (NmCSS): Quantitative ^a

O=C(CO)N[C@H]1[C@H]([C@H](O)[C@H](O)CO)OC(O)(C(=O)O)C[C@@H]1O (some centres unmarked) [Neu5Gc, N-glycolylneuraminic acid]
Percentage conversion (%) Transferase Reaction [3]: 47 ± 3% and 88 ± 3%
Percentage conversion (%) CMP-Sialic acid (NmCSS): 90 ± 2 ^a %

CC(=O)N[C@H]1[C@H]([C@H](O)[C@H](O)CO)O[C@@](OCCCNC(=O)OCc2ccccc2)(C(=O)O)C[C@@H]1O[C@H]1O[C@H](CO[C@]2(C(=O)O)C[C@H](O)[C@@H](NC(C)=O)[C@H]([C@H](O)[C@H](O)CO)O2)[C@H](O)[C@H](O)[C@H]1O [S3, Neu5Acα2-6Galα1-4Neu5AcαProNHCbz]
kcat [4]: 6.3 ± 0.2 s⁻¹

CC(=O)N[C@H]1[C@H]([C@H](O)[C@H](O)CO)O[C@@](OCCCNC(=O)OCc2ccccc2)(C(=O)O)C[C@@H]1O[C@H]1O[C@H](CO[C@]2(C(=O)O)C[C@H](O[C@H]3O[C@H](CO[C@]4(C(=O)O)C[C@H](O[C@H]5O[C@H](CO[C@]6(C(=O)O)C[C@H](O[C@H]7O[C@H](CO[C@]8(C(=O)O)C[C@H](O)[C@@H](NC(C)=O)[C@H]([C@H](O)[C@H](O)CO)O8)[C@H](O)[C@H](O)[C@H]7O)[C@@H](NC(C)=O)[C@H]([C@H](O)[C@H](O)CO)O6)[C@H](O)[C@H](O)[C@H]5O)[C@@H](NC(C)=O)[C@H]([C@H](O)[C@H](O)CO)O4)[C@H](O)[C@H](O)[C@H]3O)[C@@H](NC(C)=O)[C@H]([C@H](O)[C@H](O)CO)O2)[C@H](O)[C@H](O)[C@H]1O [S9, Neu5Acα2(-6Galα1-4Neu5Acα2)4-ProNHCbz]
kcat [4]: 9.0 ± 0.2 s⁻¹
Km [5, 8]: < 50 µM
kcat [5, 8]: 5.1 ± 0.3 s⁻¹
acceptor concentration above which substrate inhibition was observed ([5]; galactosyltransferase activity, 2 mM UDP-Gal): higher than 2 mM
increase of overall catalytic efficiency (kcat/KM) relative to monosaccharide S1 ([5]; galactosyltransferase activity): more than 2100 fold
increase of overall catalytic efficiency (kcat/KM) relative to monosaccharide S1 ([5]; galactosyltransferase activity, listed as nonasaccharide): More than 2300 fold

B1: NmSiaDW: recombinant C-terminal His-tagged N. meningitidis serogroup W capsular polysaccharide synthase, SEQ ID NO:2 (protein)
chain: MAVIIFVNGIRAVNGLVKSSINTANAFAEEGLDVHLINFVGNITGAEHLYPPFHLHPNVKTSSIIDLFNDIPENVSCRNTPFYSIHQQFFKAEYSAHYKHVLMKIESLLSAEDSIIFTHPLQLEMYRLANNDIKSKAKLIVQIHGNYMEEIHNYEILARNIDYVDYLQTVSDEMLEEMHSHFKIKKDKLVFIPNITYPISLEKKEADFFIKDNEDIDNAQKFKRISIVGSIQPRKNQLDAIKIINKIKNENYILQIYGKSINKDYFELIKKYIKDNKLQNRILFKGESSEQEIYENTDILIMTSESEGFPYIFMEGMVYDIPIVVYDFKYGANDYSNYNENGCVFKTGDISGMAKKIIELLNNPEKYKELVQYNHNRFLKEYAKDVVMAKYFTILPRSFNNVSLSSAFSRKELDEFQNITFSIEDSNDLAHIWNFELTNPAQNMNFFALVGKRKFPMDAHIQGTQCTIKIAHKKTGNLLSLLLKKRNQLNLSRGYTLIAEDNSYEKYIGAISNKGNFEIIANKKSSLVTINKSTLELHEIPHELHQNKLLIALPNMQTPLKITDDNLIPIQASIKLEKIGNTYYPCFLPSGIFNNICLDYGEESKIINFSKYSYKYIYDSIRHIEQHTDISDIIVCNVYSWELIRASVIESLMEFTGKWEKHFQTSPKIDYRFDHEGKRSMDDVFSEETFIMEFPRKNGIDKKTAAFQNIPNSIVMEYPQTNGYSMRSHSLKSNVVAAKHFLEKLNKIKVDIKFKKHDLANIKKMNRIIYEHLGININIEAFLKPRLEKFKREEKYFHDFFKRNNFKEVIFPSTYWNPGIICAAHKQGIKVSDIQYAAITPYHPAYFKSPKSHYVADKLFLWSEYWNHELLPNPTREIGSGAAYWYALDDVRFSEKLNYDYIFLSQSRISSRLLSFAIEFALKNPQLQLLFSKHPDENIDLKNRIIPDNLIISTESSIQGINESRVAVGVYSTSLFEALACGKQTFVVKYPGYEIMSNEIDSGLFFAVETPEEMLEKTSPNWVAVADIENQFFGQEK
incubation temperature at which both glycosyltransferase activities were lost (30 minutes) (NmSiaDW [6]; both activities): 44 °C
temperature up to which activity is retained after 30 minutes incubation (NmSiaDW [6]; [9]): up to 33 °C
incubation temperature above which activity decreased significantly (30 minutes) (NmSiaDW [6]; α2-6-sialyltransferase activity): higher than 30 °C
optimal temperature (NmSiaDW [7]; sialyltransferase activity): 30-37 °C
optimal temperature (NmSiaDW [7]; [9]): 20-33 °C
